Data on three compounds can be found in patent US10759795B2, “Aza-A-ring indenoisoquinoline topoisomerase I poisons” (Purdue Research Foundation, priority 2016, dated 2020).

Usually GI50 stands for the concentration that inhibits growth by half. For orientation: melting point means the temperature, or range, at which the solid turns liquid. For orientation: IC50 means the concentration at which inhibition is half-maximal.

Where two headings read alike, the source gives them in different places.

For data set [1], the system named is Colon, HCT-116. In words: NCI-60 five-dose cytotoxicity assay, HCT-116. The following applies: Homo sapiens, HCT-116, read-out: Cytotoxicity GI50, Colon, HCT-116. Here is the method: (§1) The new indenoisoquinolines were evaluated for cancer cell growth inhibitory activities. The National Cancer Institute's NCI-60 cytotoxicity assay measures the ability of test agents to inhibit the growth of approximately 60 different cancer cell lines. In the initial single-dose assay, cells are treated with a 10 μM dose of test agent. The growth of treated cells versus untreated cells is then compared. If a test agent induces a sufficiently low mean growth percent, it is promoted to five-dose testing to determine a mean graph midpoint (MGM) GI50 value. In five-dose testing, cells are treated with test agent concentrations ranging from 10^−8 to 10^−4 M. The concentration required to achieve 50% growth inhibition in a particular cell line is calculated. In situations in which this value is greater than 100 μM or less than 0.01 μM, it is recorded as 100 μM and 0.01 μM, respectively. The values for each of the tested cell lines are averaged to obtain a mean graph midpoint (MGM) GI50 value. MGM GI50 values are often, but not always, determined from two separate rounds (Table 1).

In data set [2] the test system is CNS, SF-539. Put plainly: NCI-60 five-dose cytotoxicity assay, SF-539. To be noted: Homo sapiens, CNSSF-539, read-out: Cytotoxicity GI50, CNS, SF-539. Here is the method:
as §1

Data set [3] has as its system Breast, MCF7. Put plainly: NCI-60 five-dose cytotoxicity assay, MCF7. The following applies: Homo sapiens, MCF7, read-out: Cytotoxicity GI50, Breast, MCF7. Here is the method: as §1
In data set [4] the test system is Ovarian, OVCAR-3. In words: NCI-60 five-dose cytotoxicity assay, OVCAR-3. To be noted: Homo sapiens, OVCAR-3, read-out: Cytotoxicity GI50, Ovarian, OVCAR-3. Here is the method:
as §1

For data set [5], the system named is approximately 60 different cancer cell lines. Put plainly: NCI-60 five-dose cytotoxicity assay, mean graph midpoint. The data set is classed as cell-based. To be noted: Homo sapiens, read-out: MGM: mean graph midpoint of growth inhibition (GI50). The method, then: as §1
The test system of data set [6] is Lung, HOP-62. In words: NCI-60 five-dose cytotoxicity assay, HOP-62. To be noted: Homo sapiens, HOP-62, read-out: Cytotoxicity GI50, Lung, HOP-62. Here is the method:
as §1

The test system of data set [7] is Renal, SN12C. In words: NCI-60 five-dose cytotoxicity assay, SN12C. To be noted: Homo sapiens, read-out: Cytotoxicity GI50, Renal, SN12C. The method, then:
as §1

Data set [8] deals with Prostate, DU-145. Put plainly: NCI-60 five-dose cytotoxicity assay, DU-145. The following applies: Homo sapiens, DU-145, read-out: Cytotoxicity GI50, Prostate, DU-145. Here is the method:
as §1

The subject of data set [9] is Melanoma UACC-62. Put plainly: NCI-60 five-dose cytotoxicity assay, UACC-62. To be noted: Homo sapiens, UACC-62, read-out: Cytotoxicity GI50, Melanoma UACC-62. Here is the method:
as §1

The target of data set [10] is T1, Top1 (Homo sapiens, UniProt P11387).
T1 sequence (P11387 1-765): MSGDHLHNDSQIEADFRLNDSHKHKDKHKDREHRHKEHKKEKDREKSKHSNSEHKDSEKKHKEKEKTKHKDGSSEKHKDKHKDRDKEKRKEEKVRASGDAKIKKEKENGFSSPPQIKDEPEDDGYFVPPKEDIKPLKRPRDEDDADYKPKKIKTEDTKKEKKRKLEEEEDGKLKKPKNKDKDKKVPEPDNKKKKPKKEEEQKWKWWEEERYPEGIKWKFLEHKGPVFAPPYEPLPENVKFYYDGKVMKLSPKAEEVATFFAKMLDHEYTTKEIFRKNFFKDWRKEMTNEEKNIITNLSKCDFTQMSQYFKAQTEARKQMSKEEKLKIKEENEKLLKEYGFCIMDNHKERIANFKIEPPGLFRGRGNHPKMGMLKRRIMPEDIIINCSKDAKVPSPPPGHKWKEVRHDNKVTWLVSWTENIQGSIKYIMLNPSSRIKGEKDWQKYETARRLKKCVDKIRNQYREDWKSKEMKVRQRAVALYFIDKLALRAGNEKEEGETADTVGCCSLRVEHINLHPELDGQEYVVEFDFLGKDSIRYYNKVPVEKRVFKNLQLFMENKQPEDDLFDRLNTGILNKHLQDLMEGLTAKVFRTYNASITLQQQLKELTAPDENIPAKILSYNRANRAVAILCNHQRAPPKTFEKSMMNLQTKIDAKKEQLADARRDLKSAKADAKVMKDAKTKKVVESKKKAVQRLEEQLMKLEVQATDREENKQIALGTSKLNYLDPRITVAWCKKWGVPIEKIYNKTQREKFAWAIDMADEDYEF
The following applies: background statement; cited from earlier work.

For data set [11], the target named is T2, recombinant human TDP2 (Homo sapiens, UniProt O95551).
T2 sequence (O95551 1-362): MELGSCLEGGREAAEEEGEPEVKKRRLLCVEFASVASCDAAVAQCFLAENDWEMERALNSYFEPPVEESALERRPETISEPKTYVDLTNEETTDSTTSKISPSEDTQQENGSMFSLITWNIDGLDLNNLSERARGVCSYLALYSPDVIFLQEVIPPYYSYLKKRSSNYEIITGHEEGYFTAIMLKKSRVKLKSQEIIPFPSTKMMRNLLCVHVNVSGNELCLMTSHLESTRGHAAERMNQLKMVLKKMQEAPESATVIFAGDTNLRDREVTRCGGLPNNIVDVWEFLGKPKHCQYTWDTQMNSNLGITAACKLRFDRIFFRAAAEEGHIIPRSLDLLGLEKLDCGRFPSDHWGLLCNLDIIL
Put plainly: Recombinant TDP2 assay. Format: biochemical. The following applies: recombinant human TDP2, gel-based; read-out: TDP2: IC50 values for the inhibition of TDP2. An excerpt:
Reactions were terminated and treated similarly to recombinant TDP1 reactions.
TDP2, as opposed to TDP1, cleaves the phosphotyrosyl linkage in 5′-phosphotyrosyl-DNA oligonucleotides.

Data set [12] addresses recombinant TDP1 (Homo sapiens, UniProt Q9NUW8). Put plainly: Recombinant TDP1 assay. Format: biochemical. To be noted: recombinant TDP1, gel-based; read-out: TDP1: IC50 values for the inhibition of TDP1. Here is the method:
A 5′-[^32P]-labeled single-stranded DNA oligonucleotide containing a 3′-phosphotyrosine (N14Y) was incubated at 1 nM with 10 pM recombinant TDP1 in the absence or presence of inhibitor for 15 min at room temperature in the LMP1 assay buffer containing 50 mM Tris HCl, pH 7.5, 80 mM KCl, 2 mM EDTA, 1 mM DTT, 40 μg/mL BSA, and 0.01% Tween-20^18. […] Gels were dried and exposed to a PhosphorImager screen (GE Healthcare). Gel images were scanned using a Typhoon 8600 (GE Healthcare), and densitometry analyses were performed using ImageQuant software (GE Healthcare).
TDP1 is involved in the repair of DNA damage that results from the action of Top1 poisons, which induce the formation of DNA-protein adducts that include a 3′-phosphotyrosyl linkage. The TDP1 inhibition assay assesses a test agent's ability to inhibit the enzyme-induced cleavage of a 5′-^32P, 3′-phosphotyrosyl-DNA oligonucleotide, called N14Y. Cleavage of the phosphodiester bond between the 3′-phosphate and tyrosine releases […] from the DNA oligonucleotide. The enzyme-processed DNA oligonucleotide lacking its 3′-phosphotyrosyl moiety is designated N14P. A schematic representation of the assay and a representative gel are shown in FIG. 2, and the TDP1 screening results are listed in Table 1.

The subject of data set [13] is 60 human cancer cell lines. In words: NCI-60 single-dose cytotoxicity assay. The data set is classed as cell-based. To be noted: mean-graph midpoint of percent growth of 60 human cancer cell lines, 10 μM drug, 48 h, relative to no-drug control and time zero. Here is the method:
as §1

Data set [14] concerns the target T1, Top1. Put plainly: Top1-mediated DNA cleavage assay. To be noted: score based on the activity of 1 μM 1 (camptothecin); tested at 0.1, 1, 10, 100 μM. Format: biochemical. The method, then:
Approximately 2 nM radiolabeled DNA substrate was incubated with recombinant Top in 20 μL of reaction buffer [10 mM Tris-HCl (pH 7.5), 50 mM KCl, 5 mM MgCl2, 0.1 mM EDTA, and 15 μg/mL BSA] at 25° C. for 20 min in the presence of various concentrations of test compounds. […] Aliquots of each reaction mixture were subjected to 20% denaturing PAGE.
The Top1-mediated DNA cleavage assay was used to measure Top1 inhibitory activity. This assay measures the ability of the compound to stabilize DNA cleavage in a 3′-[^32P]-labeled DNA substrate via Top1 poisoning.

recombinant TDP1, sequence (Q9NUW8 whole entry, species assumed): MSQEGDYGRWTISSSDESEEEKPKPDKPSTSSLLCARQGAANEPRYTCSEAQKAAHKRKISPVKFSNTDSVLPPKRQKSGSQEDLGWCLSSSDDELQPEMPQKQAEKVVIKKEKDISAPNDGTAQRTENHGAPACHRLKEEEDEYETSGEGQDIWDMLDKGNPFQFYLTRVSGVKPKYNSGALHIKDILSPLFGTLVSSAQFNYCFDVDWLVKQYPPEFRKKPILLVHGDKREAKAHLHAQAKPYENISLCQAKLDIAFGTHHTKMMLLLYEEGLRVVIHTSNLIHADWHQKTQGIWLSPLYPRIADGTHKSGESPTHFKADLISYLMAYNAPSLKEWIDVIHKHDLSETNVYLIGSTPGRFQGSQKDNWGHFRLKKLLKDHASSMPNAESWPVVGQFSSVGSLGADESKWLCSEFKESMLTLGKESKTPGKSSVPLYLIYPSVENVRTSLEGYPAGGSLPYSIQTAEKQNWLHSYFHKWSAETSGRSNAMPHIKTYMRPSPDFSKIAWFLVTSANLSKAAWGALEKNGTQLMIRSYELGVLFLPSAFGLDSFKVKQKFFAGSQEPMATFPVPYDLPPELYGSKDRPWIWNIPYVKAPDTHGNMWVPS

In the case of `CC[C@@]1(O)C(=O)OCc2c1cc1n(c2=O)Cc2cc3ccccc3nc2-1` [Compound 1, camptothecin, reference compound], the GI50 in data set [1] worked out at 30 nM; in [2] it was 10 nM; in data set [3] it was 10 nM; in data set [4], 220 nM; in data set [5], 40.5 nM; in data set [6], 10 nM. Besides, the concentration for 50% growth inhibition (GI50) in data set [7] worked out at 20 nM; in data set [8] it was 10 nM; in data set [9] it was 10 nM.
`O=C1c2ccccc2-c2c1c1ccccc1c(=O)n2CCCNCCCNCCCn1c2c(c3ccccc3c1=O)C(=O)c1ccccc1-2` [Compound 5]: the Top1 inhibitory activity entry in data set [10] is listed as “potent”.
On to `CN(C)CCCn1c2c(c3cnccc3c1=O)C(=O)c1ccccc1-2` [Compound 45, 2-Aza-5,6-dihydro-6-(3-(dimethylamino)propyl)-5,11-dioxo-indeno[1,2-c]isoquinoline], for which the melting point was in the range of 177 to 178 °C. Further, the GI50 in [1] stood at 245 nM. In data set [3], the 50% growth inhibitory concentration (GI50) amounted to 245 nM. The 50% growth inhibitory concentration (GI50) in data set [4] turned out to be 1100 nM. Besides, the concentration for 50% growth inhibition (GI50) in data set [5] (5 dose assay, 10^−8-10^−4 M, average over tested cell lines) was found to be 437 nM. Further, the GI50 in data set [6] worked out at 398 nM. Besides, in data set [11], the IC50 was 37000 nM. The concentration for 50% growth inhibition (GI50) in data set [7] was 288 nM. Moreover, the concentration for half-maximal inhibition (IC50) in data set [12] was found to be 63000 nM. The GI50 in [8] came to 490 nM. In addition, in data set [13], the activity at 10 µM was -8.83%. Further, the “Top 1: compound-induced DNA cleavage due to Top1 poisoning” value in [14] was “++ (++, between 50 and 75% activity)”. The GI50 in [9] is 309 nM.
